Experimental data: the supplement of paper PMC10307832

Compound: Nc1nc2[nH]cc(CCc3ccc(C(=O)N[C@@H](CCC(=O)O)C(=O)O)cc3)c2c(=O)[nH]1 [Pemetrexed]
Assay: relative viability (nuclei count vs DMSO), 5 days (fraction); higher = more cells survive
Outline: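 Hoechst staining, done together with fixation and permeabilisation, marked nuclei for 4× imaging and MetaXpress counting. This followed 5 days without medium change after lung cancer cell lines, kept overnight at 37 °C in 1536-well plates, were pinned with five library-drug doses (not always all listed) spaced by √10 on vehicle-anchored plates. Viability is the ratio of treated-well to vehicle-well nuclei, expressed as a median across plates. Plates passed only at control CV below 25% with at least one doubling.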

Cell Line	relative viability (0.002 µM)	relative viability (0.006325 µM)	relative viability (0.02 µM)	relative viability (0.06325 µM)	relative viability (0.2 µM)	relative viability (0.2 µM, anchor plate)
SW 900	0.809	0.907	0.948	0.814	0.487	0.496
PC-3 [JPC-3]	0.882	1.1	1.06	1.04	0.964	1.16
NCI-H1703	0.917	0.871	1.39	1.06	0.92	
EPLC-272H	0.888	0.892	1.1	0.935	0.798	0.313
NCI-H1792	1.09	0.897	1	0.893	0.94	0.968
NCI-H2085	0.947	0.979	1.08	1.03	0.98	0.921
LK-2	0.854	0.925	1.06	0.868	0.685	0.284
NCI-H1395	0.796	1.02	1.09	0.994	0.86	0.892
ABC-1	0.911	1.02	1.22	0.976	0.822	
RERF-LC-KJ	0.958	0.969	1.03	0.995	0.746	0.486
LU99A	0.869	0.92	1.07	1.08		
NCI-H650	0.851	0.905	0.987	0.857	1.02	0.925
NCI-H2347	0.931	0.965	1.14	0.9	0.655	0.42
HARA	0.944	1.05	1.12	0.904	0.225	0.241
NCI-H2228	0.799	0.878	1.2	0.838	0.333	0.339
EKVX	0.854	0.984	1.03	0.995	0.734	0.404
HCC-827	0.908	1.09	1.05	1.02		
NCI-H1755	0.872	0.983	1.01	0.995	0.879	0.47
NCI-H661	1	0.975	1.02	0.977	0.967	0.923
NCI-H1944	0.716	0.99	1.04	0.956	0.969	0.619
NCI-H23	0.893	0.987	1.18	0.91	0.905	0.714
NCI-H1648	0.992	0.924	0.888	0.783	0.931	0.77
NCI-H522	1.18	0.999	0.916	0.868	1.03	1.03
HCC-366	0.964	0.985	1.07	0.991		
EBC-1	0.951	0.951	1.09	1.01	0.735	
ChaGo-K-1	1.05	0.942	0.98	0.418	0.312	0.261
LCLC-97TM1	0.913	0.891	0.93	1.02		

Cell Line	relative viability (0.002 µM)	relative viability (0.006325 µM)	relative viability (0.02 µM)	relative viability (0.06325 µM)	relative viability (0.2 µM)	relative viability (0.2 µM, anchor plate)
NCI-H1299	1.01	0.998	1.06	0.991	0.959	
EMC-BAC-2	0.868	1.04	1.12	0.966	0.782	0.444
NCI-H1623	0.899	1.04	0.976	0.912	0.955	
NCI-H441	0.917	1.01	1.1	0.688	0.452	0.255
LCLC-103H	0.89	1.01	1.01	1.02	0.935	0.477
HOP-62	0.864	0.949	1.08	0.964		
NCI-H1793	0.909	0.807	0.986	0.987	0.93	0.923
NCI-H1355	0.787	0.962	0.999	1.05	1	1.04
COR-L23	0.998	0.979	1.04	0.375	0.211	0.2
HCC-44	0.839	0.989	1.06	0.995	0.796	0.647
A-427	0.94	1.05	1.07	0.992	0.939	0.98
IA-LM	0.838	0.937	0.959	0.988	0.865	
NCI-H520	0.938	0.969	0.95	0.936	0.975	0.693
LXF-289	0.938	0.999	1.04	1.02	0.939	0.905
NCI-H2087	0.926	0.875	1.15	1.05	0.639	0.684
CAL-12T	0.936	0.938	1.16	0.967	0.863	1.19
NCI-H596	0.996	0.909	0.942	0.732	0.436	0.499
PC-14	0.975	1.01	1.08	0.602	0.142	0.136
NCI-H1915	0.95	0.976	1.12	0.982	0.98	0.507
NCI-H647	0.734	1.01	1.04	0.883	0.289	0.182
NCI-H322M	1.09	0.934	0.98	0.983	0.741	0.634
A549	0.938	0.948	1.09	0.973	1.01	
NCI-H2170	0.952	0.928	1.04	1.01		
BEN	0.964	1	1.06	0.947	0.769	0.829
NCI-H2009	0.905	0.953	1.14	0.997	0.976	1.03
LC-2-ad	0.815	0.974	0.967	0.296	0.3	0.285
NCI-H1437	0.741	0.974	0.998	0.704	0.493	0.319

Cell Line	relative viability (0.002 µM)	relative viability (0.006325 µM)	relative viability (0.02 µM)	relative viability (0.06325 µM)	relative viability (0.2 µM)	relative viability (0.2 µM, anchor plate)
NCI-H3122	1.01	0.953	1.02	0.951	0.576	0.201
NCI-H1563	0.907	0.955	0.991	1.03	1.01	0.799
NCI-H727	0.844	0.931	0.899	0.958	0.899	
Calu-6	0.92	0.96	1.1	1	0.886	
NCI-H1734	0.997	0.923	1.11	0.964	0.676	0.433
HCC-15	0.823	0.948	1.09	0.978	0.402	0.227
NCI-H2405	0.97	0.985	1.09	0.98	0.961	1.08
NCI-H1993	0.866	0.995	0.962	0.896	0.734	0.592
NCI-H1650	0.788	0.89	1.21	0.633	0.341	0.367
NCI-H460	0.878	0.969	1.03	0.745	0.116	0.065
NCI-H1651	0.951	0.91	1.04	0.95	0.945	0.616
NCI-H1975	0.698	0.938	1.01	0.87	0.54	0.291
NCI-H2126	0.974	0.992	1.04	1	0.91	0.684
201T	1.01	0.998	1.04	0.996	0.91	0.323
HCC-78	0.674	0.98	0.877	0.43		
NCI-H358	0.958	0.925	0.864	0.293	0.24	0.176
SK-LU-1	0.944	0.979	1.05	1.12	1	0.927
H3255	0.819	1.03	0.986	1.07	0.827	0.587
LOU-NH91	0.948	1	1.06	0.678	0.521	0.388
NCI-H1666	1.05	1.02	0.999	1.02	0.796	0.834
SK-MES-1	0.979	0.932	1.07	0.976	0.934	0.94
NCI-H2023	0.762	0.87	1.11	0.802	0.292	0.249
COR-L 105	0.947	0.896	1.14	0.883	0.978	1.12
NCI-H2342	0.804	0.95	1.03	1.02	1.08	0.769
NCI-H838	0.99	0.917	1.08	0.869	0.359	0.257
SW 1573	1.04	0.951	1.05	0.893	0.976	0.897
